What was measured:
MK-2206 = compound: NC1(c2ccc(-c3nc4ccn5c(=O)[nH]nc5c4cc3-c3ccccc3)cc2)CCC1 [MK-2206]; settings: max 10 µM
In short: (§1)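 In 1536-well plates, cancer cell lines in 7.5 μl DMEM/F12 or RPMI with 10% FBS spent 24 hours at 37°C and 5% CO2 and were then dosed for 72 hours with final DMSO typically 0.2%. Viability was read by CellTiter-Glo 2.0 luminescence and scaled between blank-well and DMSO-well means. The single-agent IC50 was fitted from dose responses using a logistic curve in a non-linear mixed effects model, and that logistic curve had two parameters.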

AZD4320 = compound: CN(CC[C@H](CSC1=CC=CC=C1)NC2=C(C=C(C=C2)S(=O)(=O)NC(=O)C3=CC=C(C=C3)N4CCC(CC4)[C@H](C5=CC=CC=C5C6=CC=C(C=C6)Cl)O)S(=O)(=O)C(F)(F)F)CCO [AZD4320]; settings: max 1 µM
In short: as §1

SN-38 = compound: CCc1c2c(nc3ccc(O)cc13)-c1cc3c(c(=O)n1C2)COC(=O)[C@]3(O)CC [SN-38]; settings: max 0.3 µM
In short: as §1

Venetoclax = compound: CC1(C)CCC(CN2CCN(c3ccc(C(=O)NS(=O)(=O)c4ccc(NCC5CCOCC5)c([N+](=O)[O-])c4)c(Oc4cnc5[nH]ccc5c4)c3)CC2)=C(c2ccc(Cl)cc2)C1 [Venetoclax]; settings: max 1 µM
In short: as §1

Alisertib = compound: COc1cc(Nc2ncc3c(n2)-c2ccc(Cl)cc2C(c2c(F)cccc2OC)=NC3)ccc1C(=O)O [Alisertib]; settings: max 10 µM
In short: as §1

Lapatinib = compound: CS(=O)(=O)CCNCc1ccc(-c2ccc3ncnc(Nc4ccc(OCc5cccc(F)c5)c(Cl)c4)c3c2)o1 [Lapatinib]; settings: max 10 µM
In short: as §1

Gefitinib = compound: COc1cc2ncnc(Nc3ccc(F)c(Cl)c3)c2cc1OCCCN1CCOCC1 [Gefitinib]; settings: max 10 µM
In short: as §1

AZD1390 = compound: CC(C)n1c(=O)n(C)c2cnc3cc(F)c(-c4ccc(OCCCN5CCCCC5)nc4)cc3c21 [AZD1390]; settings: max 0.3 µM
In short: as §1

Olaparib = compound: O=C(c1cc(Cc2n[nH]c(=O)c3ccccc23)ccc1F)N1CCN(C(=O)C2CC2)CC1 [Olaparib]; settings: max 10 µM
In short: as §1

Crizotinib = compound: C[C@@H](Oc1cc(-c2cnn(C3CCNCC3)c2)cnc1N)c1c(Cl)ccc(F)c1Cl [Crizotinib]; settings: max 10 µM
In short: as §1

AZD7648 = compound: Cc1cc2ncnn2cc1Nc1ncc2c(n1)n(C1CCOCC1)c(=O)n2C [AZD7648]; settings: max 10 µM
In short: as §1

Doxorubicin = compound: COc1cccc2c1C(=O)c1c(O)c3c(c(O)c1C2=O)C[C@@](O)(C(=O)CO)C[C@@H]3O[C@H]1C[C@H](N)[C@H](O)[C@H](C)O1 [Doxorubicin]; settings: max 1 µM
In short: as §1

AZD8186 = compound: C[C@@H](Nc1cc(F)cc(F)c1)c1cc(C(=O)N(C)C)cc2c(=O)cc(N3CCOCC3)oc12 [AZD8186]; settings: max 3 µM
In short: as §1

AZD5991 = compound: Cc1c2c(nn1C)CSCc1cc(n(C)n1)CSc1cc(c3ccccc3c1)OCCCc1c(C(=O)O)n(C)c3c-2c(Cl)ccc13 [AZD5991]; settings: max 1 µM
In short: as §1

Palbociclib = compound: CC(=O)c1c(C)c2cnc(Nc3ccc(N4CCNCC4)cn3)nc2n(C2CCCC2)c1=O [Palbociclib]; settings: max 10 µM
In short: as §1

Savolitinib = compound: C[C@@H](c1ccc2nccn2c1)n1nnc2ncc(-c3cnn(C)c3)nc21 [Savolitinib]; settings: max 1 µM
In short: as §1

Trametinib = compound: CC(=O)Nc1cccc(-n2c(=O)n(C3CC3)c(=O)c3c(Nc4ccc(I)cc4F)n(C)c(=O)c(C)c32)c1 [Trametinib]; settings: max 1 µM
In short: as §1

Dasatinib = compound: CC1=C(C(=CC=C1)Cl)NC(=O)C2=CN=C(S2)NC3=CC(=NC(=N3)C)N4CCN(CC4)CCO [Dasatinib]; settings: max 2 µM
In short: as §1

AZD2811 = compound: CCN(CCO)CCCOc1ccc2c(Nc3cc(CC(=O)Nc4cccc(F)c4)[nH]n3)ncnc2c1 [AZD2811]; settings: max 1 µM
In short: as §1

SG3199 = compound: CC1=CN2[C@@H](C1)C=NC3=CC(=C(C=C3C2=O)OC)OCCCCCOC4=C(C=C5C(=C4)N=C[C@@H]6CC(=CN6C5=O)C)OC [SG3199]; settings: max 0.001 µM
In short: as §1

AZD1775 = compound: C=CCn1c(=O)c2cnc(Nc3ccc(N4CCN(C)CC4)cc3)nc2n1-c1cccc(C(C)(C)O)n1 [AZD1775]; settings: max 3 µM
In short: as §1

AZD0156 = compound: CN(C)CCCOc1ccc(-c2ccc3ncc4c(c3c2)n(C2CCOCC2)c(=O)n4C)cn1 [AZD0156]; settings: max 3 µM
In short: as §1

AZD5153 = compound: COc1nnc2ccc(N3CCC(c4ccc(OCCN5CCN(C)C(=O)[C@H]5C)cc4)CC3)nn12 [AZD5153]; settings: max 1 µM
In short: as §1

Taselisib = compound: Cc1nc(-c2cn3c(n2)-c2ccc(-c4cnn(C(C)(C)C(N)=O)c4)cc2OCC3)n(C(C)C)n1 [Taselisib]; settings: max 10 µM
In short: as §1

Capivasertib = compound: C1CN(CCC1(C(=O)N[C@@H](CCO)C2=CC=C(C=C2)Cl)N)C3=NC=NC4=C3C=CN4 [Capivasertib]; settings: max 10 µM
In short: as §1

Prexasertib = compound: COc1cccc(OCCCN)c1-c1cc(Nc2cnc(C#N)cn2)n[nH]1 [Prexasertib]; settings: max 1 µM
In short: as §1

Selumetinib = compound: Cn1cnc2c(F)c(Nc3ccc(Br)cc3Cl)c(C(=O)NOCCO)cc21 [Selumetinib]; settings: max 10 µM
In short: as §1

AZD6738 = compound: C[C@@H]1COCCN1C2=NC(=NC(=C2)C3(CC3)[S@](=N)(=O)C)C4=C5C=CNC5=NC=C4 [AZD6738]; settings: max 10 µM
In short: as §1

Cell Line	IC50, cell viability 72 h (MK-2206) [nM]	IC50, cell viability 72 h (AZD4320) [nM]	IC50, cell viability 72 h (SN-38) [nM]	IC50, cell viability 72 h (Venetoclax) [nM]	IC50, cell viability 72 h (Alisertib) [nM]	IC50, cell viability 72 h (Lapatinib) [nM]	IC50, cell viability 72 h (Gefitinib) [nM]	IC50, cell viability 72 h (AZD1390) [nM]	IC50, cell viability 72 h (Olaparib) [nM]	IC50, cell viability 72 h (Crizotinib) [nM]	IC50, cell viability 72 h (AZD7648) [nM]	IC50, cell viability 72 h (Doxorubicin) [nM]	IC50, cell viability 72 h (AZD8186) [nM]	IC50, cell viability 72 h (AZD5991) [nM]	IC50, cell viability 72 h (Palbociclib) [nM]	IC50, cell viability 72 h (Savolitinib) [nM]	IC50, cell viability 72 h (Trametinib) [nM]	IC50, cell viability 72 h (Dasatinib) [nM]	IC50, cell viability 72 h (AZD2811) [nM]	IC50, cell viability 72 h (SG3199) [nM]	IC50, cell viability 72 h (AZD1775) [nM]	IC50, cell viability 72 h (AZD0156) [nM]	IC50, cell viability 72 h (AZD5153) [nM]	IC50, cell viability 72 h (Taselisib) [nM]	IC50, cell viability 72 h (Capivasertib) [nM]	IC50, cell viability 72 h (Prexasertib) [nM]	IC50, cell viability 72 h (Selumetinib) [nM]	IC50, cell viability 72 h (AZD6738) [nM]
NCI-H446 (Small Cell Lung Carcinoma)	4500	557	62.6	> 1000	54.8	6400	> 10000	> 300	> 10000	1720	> 10000	499	> 3000	> 1000	> 10000	> 1000	> 1000	> 2000	42.8	> 1	400	> 3000	209	2860	2660	19.3	> 10000	4150
RERF-GC-1B (Gastric Carcinoma)	> 10000	> 1000	60.9	> 1000	3280	> 10000	> 10000	> 300	> 10000	7140	> 10000	525	> 3000	159	> 10000	> 1000	462	28.2	> 1000	> 1	401	> 3000	587	1650	> 10000	717	> 10000	> 10000

Reference: the supplement of paper PMC11061612
